According to patent US9557319B2, “Cell-based arrays, methods of making, and methods of using” (University of Florida Research Foundation, Inc., priority 2010, dated 2017):

How the values were obtained:
HCT116 cells = experiment: HCT116 cell number (Hoechst nuclear stain) on drug-loaded microarray; type: cell-based, human
From the text: The following figures (FIGS. 5.1 to 5.4) are micrographs taken from drug-eluting cellular microarrays, manufactured as described herein. The images are taken from individual cellular islands from the same array under various drug-loading conditions over a period of three days. HCT116 cells are nuclear stained with Hoechst for easy visibility. […] The water phase for this experiment was loaded with azide at various concentrations in addition to a control with no drug loaded. Azide is a useful probe reagent, mutagen, and preservative. Azide inhibits cytochrome oxidase by binding irreversibly to the heme cofactor in a process similar to the action of carbon monoxide. As such, it is expected to induce necrosis in cells at physiologically relevant doses.
To establish microarray fidelity, microarrays were manufactured as described above. HCT116 cells were then seeded over microarrays and incubated for 24 or 72 h. Microarrays were fixed in 4% paraformaldehyde and stained with Hoechst 34580 dye.
Camptothecin-loaded microarrays were stained with Annexin V (BD Pharminigen), fixed in 4% paraformaldehyde, and placed in PBS with Hoechst dye 34580 (Invitrogen, USA) for 30 min. Azide-loaded microarrays were fixed with 4% paraformaldehyde and incubated with PBS containing Hoechst 34580 dye. Finally, nutlin-3a-loaded microarrays were fixed with 4% paraformaldehyde, stained with BrdU (BD Bioscience, San Jose, Calif.), and incubated in PBS containing Hoechst 34580 dye. All arrays were mounted with Fluoro-Gel (Electron Microscope Sciences, Hatfield, Pa.) and imaged using an Axiovert 200M microscope (Carl Zeiss, Oberkochen, Germany). Analysis was performed with Axiovision (Carl Zeiss, Oberkochen, Germany) by quantifying, in each drug-eluting island, the area of fluorescence and reported as relative fluorescence intensity (RFI).

[1] = Loading efficiency of small molecules in microarrayed EVA films; type: physicochemical
Protocol: To embed molecules into the polymer matrix, they were first dissolved in an appropriate solvent, depending on their respective hydrophobicity. A stock solution of azide (99%, Acros), a hydrophilic molecule, was dissolved in dH2O whereas Nutlin-3a (EMD Chemicals, Gibbstown, N.J.) and camptothecin (Sigma), both hydrophobic molecules, were dissolved in DMSO. Dissolved drugs were then added to 5% EVA at a 1:10 ratio of solvent:EVA. Prior to printing, polymer mixtures were vortexed for 30 s and then homogenized for 1 min before being loaded onto the source plate of the robotic mini-arrayer.
To determine the loading efficiency of factors, polymer formulations were made as described above. Films derived from 100 μl EVA loaded with factors were then made on glass coverslips and allowed to dry overnight under vacuum. Films were removed from the glass substrates and weighed. Films were washed briefly with PBS before being placed in 1 ml toluene to dissolve the polymer. Samples were then analyzed using a Nanodrop-ND-1000 spectrophotometer. Standard curves were generated for each factor, and loading efficiency was calculated as the percent of drug embedded in the polymer compared to the theoretical drug concentration.

## [N-]=[N+]=[N-] [Azide]
HCT116 cells; 37.5 and 75 mM azide, 5-68 h
  response of HCT116 cell density on azide-loaded ELVAX islands: dose-dependent response
HCT116 cells; 1 h after seeding, across loading concentrations, ANOVA p=0.490
  cell counts of HCT116 on drug-loaded film after attachment: No statistical difference
HCT116 cells; after 24 h
  HCT116 cell numbers vs drug loading concentration: decreased with increasing loading concentrations
[1]
  Loading efficiency (%): 73 +/− 8%
